Residues, ends and D or L forms follow the SMILES beside them. *: point of attachment. AFC = O=c1cc(C(F)(F)F)c2ccc(N*)cc2o1; Cbz = O=C(OCc1ccccc1)*; CH2F = FC*
How the values were obtained:
[1] = system: purified Taenia solium cysteine protease; test: Competitor assay of low Vmax substrates (vehicles) against high Vmax substrate cocktails (Step III), purified protease; type: biochemical; conditions: for inhibition with the 1.4% cocktail: 1.4% cocktail (Z-FR-AFC 1X10^-6 M); for inhibition with the final cocktail (7.4%): 7.4% cocktail (five high Vmax substrates, 1X10^-6 M each); for Ki of vehicle: Dixon plot, data not shown
Procedure: The top 1.4% of substrates (out of 67) in the full panel of substrates with the highest Vmax values were chosen to compose a "TOP 1.4% cocktail". (We employed "Vmax" here although Kcat could also be used). Due to the lower number of substrates, a percentage was not chosen for the "BOTTOM %" substrates. Alternately, all substrates which were not cleaved as determined by a value of 10 uM/hr or less, were chosen to be tested in this step for competitive ability. Hereinafter the term "vehicle" will represent low Vmax substrates that were capable of inhibiting cleavage of the percent cocktails. In this instance, we tested for "vehicles" which inhibited cleavage of the TOP 1.4% cocktail (they were delivered into the active site). Based upon our results from Step II, the top 1.4% cocktail was composed of Z-Phe-Arg-AFC, the highest cleaved substrate.
The experiment began with a competitor test between the noncleaved low Vmax substrates and the highest Vmax substrate, Z-Phe-Arg-AFC. Concentrations were varied between the low Vmax substrate and Z-Phe-Arg-AFC, as described above under "refinement of assay" until a relative inhibition profile was obtained.
The mixture was allowed to equilibrate for a period of 30 minutes. Finally, active purified enzyme was added to the tubes at a concentration that was always 50 times less than the concentration of the high and low Vmax substrates, respectively, in order to insure saturation conditions. This concentration varied from purification to purification and the amount added depended upon the yield and specific activity of the purified protease.
Positive controls were set up in a manner similar to that described for test controls, except that solvent was added in substitution for the low Vmax substrate (in a volume equal to the low Vmax volume addition). All of the substrates could be dissolved in dimethylsulfoxide (DMSO), and therefore, this was the solvent of choice. Negative controls were set up by adding the low Vmax and the high Vmax substrate in a tube without the protease. All potential non-proteolytic induced liberation of AFC was therefore controlled for in this tube (a feature which also monitored stability of the AFC substrates, since these substrates will freely liberate AFC when unstable). A tube set was established for this negative control.
All controls were set up in triplicate, and experiments were repeated a minimum of five times. The assays were incubated at 37°C, for 18 hours overnight.
Percent inhibition was calculated as: %Inhibition = ((AFC positive for "Y"−AFC negative for "Y")−(AFC test−AFC negative for "Y"))/(AFC positive for "Y"−AFC negative for "Y") × 100 [formula]
A 2.9% cocktail of the high Vmax substrates was made. This was composed of Z-FR-AFC and the second most cleaved substrate, Z-FAR-AFC. The vehicles promoted from the initial screenings above were again tested for competitive inhibition ability with the new cocktails. Their concentrations were set identically to those which were "fixed" in the previous protocols. In other words, 8X10^-6 M of the vehicle was added to the culture tube with 1X10^-6 M of Z-FR-AFC and 1X10^-6 M of Z-FAR-AFC. Active protease was added last at a concentration that was 50 times less than the concentration of the high Vmax substrate (to ensure saturating conditions).
In similar experimental fashion, a 4.4%, 5.9%, and 7.4% cocktail were tested with each of the promising vehicles. Each increase in the percentage represented an increase by an additional high Vmax substrate. Each of the individual components in the cocktail were added at 1X10^-6 M each, to 8X10^-6 M of the vehicle. The composition of the cocktails was as follows: 4.4% cocktail: Z-FR-AFC, Z-FAR-AFC, and Z-AAK-AFC (third highest cleaved substrate); 5.9% cocktail: Z-FR-AFC, Z-FAR-AFC, Z-AAK-AFC, and AP-AFC (fourth highest cleaved substrate); 7.4% cocktail: […], Z-FAR-AFC, Z-AAK-AFC, AP-AFC, and Z-VLR-AFC. […]

[2] = system: T. solium (cysteine); test: Selectivity test (Steps VI and IX), T. solium cysteine protease; type: biochemical, Taenia solium
Procedure: In order to perform the assay, the vehicle (for Step VI) or inhibitor (for Step IX) were incubated with the appropriate substrate in the correct assay buffer and allowed to equilibrate. Subsequently, the protease was added, and the assay was allowed to incubate for an appropriate time. The concentrations used in this experiment were as follows: Vehicle was set up at 4 X 10^-5 M in final assay buffer; Inhibitor was set up at 3 X 10^-10 M in the final assay buffer. Preferably the dosages employed should be the minimal amount of vehicle or inhibitor necessary to induce inhibition. […] Substrates were set up based upon the preferred substrate for cleavage of the particular enzyme.
Positive controls were set up similarly as described for test controls, except that a solvent blank was added in substitution for the inhibitor or vehicle (in a volume equal to the volume of inhibitor or vehicle addition). All of the inhibitors and vehicles could be dissolved in dimethylsulfoxide (DMSO), and therefore, this was the solvent of choice. Negative controls were set up by adding the inhibitor or vehicle and the preferred substrates in a tube without the protease. All potential non-proteolytic liberation of AFC was therefore controlled for in this tube.
All controls were set up in triplicate, and experiments were repeated a minimum of five times.
Percent inhibition was calculated as: %Inhibition = ((AFC positive for "SI"−AFC negative for "SI")−(AFC test−AFC negative for "SI"))/(AFC positive for "SI"−AFC negative for "SI") × 100 [formula]
In this preliminary test, we employed the following human-derived enzymes (with indicated mechanistic class in parentheses): Cathepsin B (cysteine), Cathepsin L (cysteine), Cathepsin H (cysteine), Cathepsin D (aspartic), Trypsin (serine), the purified Taenia solium cysteine protease, and the Taenia solium crude mix. Cathepsin B was prepared in an assay buffer of 10 mM L-cysteine in 0.4 M Citrate buffer, pH 6.1, using Z-ARR-AFC as the cleavage substrate. Cathepsin L was prepared in an assay buffer of 10 mM L-cysteine in 0.4 M Citrate buffer, pH 5.5, using Z-FR-AFC as the cleavage substrate. Cathepsin H was prepared in an assay buffer of 10 mM L-cysteine in 0.15 M PBS buffer, pH 6.8, using L-R-AFC as the cleavage substrate. Cathepsin D was prepared in an assay buffer of 0.15 M PBS, pH 7.1, using Z-RGFFP-AFC as the cleavage substrate. Trypsin was prepared in an assay buffer of 0.15 M PBS, pH 8.0, supplemented with 100 mM CaCl2 and with Z-R-AFC as the cleavage substrate. Enzyme was incubated so that it was at least 50 times less than the concentration of substrate in order to insure saturating conditions.

Row | Molecule | inhibition with the 1.4% cocktail ([1]; vehicle 8X10^-6 M) | inhibition with the final cocktail (7.4%) ([1]; vehicle 8X10^-6 M) | Ki of vehicle [1] | % inhibition ([2]; vehicle 4 X 10^-5 M) | % inhibition ([2]; inhibitor 3 X 10^-10 M) | V Value ([1]; V = P * M, P inhibition with first (1.4%) cocktail, M with last (7.4%) cocktail, vehicle 8X10^-6 M, each cocktail substrate 1X10^-6 M)
1 | CC(C)C[C@H](NC(=O)OCc1ccccc1)C(=O)N[C@@H](CC(C)C)C(=O)N[C@@H](CC(C)C)C(=O)Nc1ccc2c(C(F)(F)F)cc(=O)oc2c1 [Z-LLL-AFC, Z-Leu-Leu-Leu-AFC] (Cbz-Leu-Leu-Leu-{AFC}) | greater than 20% | ≥ 50% | low Ki value | 68% | – | –
2 | CC(C)C[C@H](NC(=O)OCc1ccccc1)C(=O)N[C@@H](CC(C)C)C(=O)N[C@@H](Cc1ccc(O)cc1)C(=O)CF [Z-LLY-FMK, Z-Leu-Leu-Tyr-FMK] (Cbz-Leu-Leu-Tyr-CH2F) | – | – | – | – | 62% | –
3 | Mu-Leu-Tyr-AFC [Mu-LY-AFC] | – | ≥ 50% | low Ki value | 75% | – | 0.450
4 | CC(C)C[C@H](NC(=O)OCc1ccccc1)C(=O)N[C@@H](CC(C)C)C(=O)N[C@@H](Cc1ccc(O)cc1)C(=O)Nc1ccc2c(C(F)(F)F)cc(=O)oc2c1 [Z-LLY-AFC, Z-Leu-Leu-Tyr-AFC] (Cbz-Leu-Leu-Tyr-{AFC}) | greater than 20% | ≥ 50% | low Ki value | 70% | – | –

— patent EP1379634B1 (THE UNIVERSITY OF GEORGIA RESEARCH FOUNDATION, INC., priority 2001, dated 2002)
